Structures can show the parent of a compound that is named as a salt. ± gives the standard deviation of the averaged measurements.
Test system: KHOS-240S
Test: relative viability vs DMSO control (72 h) (fraction); higher = more viable cells
Outline: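 Relative viability was measured with ATPLite and expressed as percent growth, averaged across up to triplicate wells. Sarcoma cell lines had been seeded in 384-well plates to reach 80–90% confluence, dosed after 24 h, and incubated 72 h at 37 °C, 5% CO2. All data were rescaled on a scale where 1 is full and 0 is none.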

Row | Compound | relative viability (0.00017 µM) | relative viability (0.00051 µM) | relative viability (0.00152 µM) | relative viability (0.00457 µM) | relative viability (0.01372 µM) | relative viability (0.04115 µM) | relative viability (0.1235 µM) | relative viability (0.3704 µM) | relative viability (1.111 µM) | relative viability (3.333 µM) | relative viability (10 µM)
1 | Cc1cnc(Nc2ccc(OCCN3CCCC3)cc2)nc1Nc1cccc(S(=O)(=O)NC(C)(C)C)c1 [Fedratinib] | 1.07 ± 0.046 | 1.07 ± 0.047 | 1.07 ± 0.033 | 1.06 ± 0.023 | 1.05 ± 0.058 | 1.05 ± 0.094 | 0.989 ± 0.062 | 0.801 ± 0.018 | 0.412 ± 0.031 | 0.103 ± 0.011 | 0.0053 ± 0.0017
2 | C=CC(=O)N1CCC([C@@H]2CCNc3c(C(N)=O)c(-c4ccc(Oc5ccccc5)cc4)nn32)CC1 [Zanubrutinib] | 0.952 ± 0.026 | 0.946 ± 0.032 | 0.962 ± 0.02 | 0.9655 ± 0.007 | 0.936 ± 0.043 | 0.962 ± 0.021 | 0.957 ± 0.022 | 0.935 ± 0.037 | 0.901 ± 0.047 | 0.85 ± 0.065 | 0.839 ± 0.019
3 | CN1CCC(COc2cnc(-c3cccc(Cn4nc(-c5cccc(C#N)c5)ccc4=O)c3)nc2)CC1 [Tepotinib] | 1.09 ± 0.051 | 1.09 ± 0.014 | 1.1 ± 0.043 | 1.09 ± 0.035 | 1.04 ± 0.019 | 1.08 ± 0.045 | 1.04 ± 0.045 | 1.02 ± 0.031 | 1 ± 0.017 | 0.94 ± 0.095 | 0.593 ± 0.022
4 | Cc1nc(NC(=O)N2CCC[C@H]2C(N)=O)sc1-c1ccnc(C(C)(C)C(F)(F)F)c1 [Alpelisib] | 1.05 ± 0.071 | 1.07 ± 0.02 | 1.03 ± 0.054 | 1.05 ± 0.054 | 1.02 ± 0.061 | 1.01 ± 0.048 | 0.914 ± 0.055 | 0.907 ± 0.039 | 0.825 ± 0.065 | 0.791 ± 0.04 | 0.697 ± 0.054
5 | CC[C@H](Nc1ncnc2[nH]cnc12)c1nc2cccc(F)c2c(=O)n1-c1ccccc1 [Idelalisib] | 1.1 ± 0.062 | 1.11 ± 0.064 | 1.11 ± 0.056 | 1.1 ± 0.065 | 1.09 ± 0.071 | 1.08 ± 0.068 | 1.08 ± 0.051 | 1.06 ± 0.078 | 1.03 ± 0.058 | 0.942 ± 0.074 | 0.901 ± 0.079
6 | COc1cccc2c1C(=O)c1c(O)c3c(c(O)c1C2=O)C[C@@](O)(C(=O)CO)C[C@@H]3O[C@H]1C[C@H](N)[C@H](O)[C@H](C)O1 [Doxorubicin Hydrochloride] | 1.08 ± 0.041 | 1.05 ± 0.033 | 1.05 ± 0.026 | 1.07 ± 0.039 | 0.996 ± 0.042 | 0.654 ± 0.045 | 0.459 ± 0.011 | 0.241 ± 0.018 | 0.109 ± 0.0065 | 0.124 ± 0.021 | 0.106 ± 0.0059
7 | Cc1ccc(NC(=O)c2ccc(CN3CCN(C)CC3)cc2)cc1Nc1nc(-c2cccnc2)cs1 [Masitinib] | 1.02 ± 0.03 | 1.03 ± 0.021 | 1.04 ± 0.017 | 1.03 ± 0.011 | 1.01 ± 0.051 | 1.01 ± 0.047 | 0.98133 ± 0.00047 | 0.862 ± 0.033 | 0.758 ± 0.012 | 0.474 ± 0.028 | 0.109 ± 0.005
8 | Cn1cnc2c(F)c(Nc3ccc(Br)cc3F)c(C(=O)NOCCO)cc21 [Binimetinib] | 1.03 ± 0.053 | 1.06 ± 0.054 | 1.07 ± 0.067 | 1.06 ± 0.052 | 0.998 ± 0.02 | 0.975 ± 0.027 | 0.922 ± 0.04 | 0.895 ± 0.069 | 0.855 ± 0.0094 | 0.737 ± 0.027 | 0.637 ± 0.045
9 | CC(=O)Nc1cccc(-n2c(=O)n(C3CC3)c(=O)c3c(Nc4ccc(I)cc4F)n(C)c(=O)c(C)c32)c1 [Trametinib] | 1.07 ± 0.038 | 1.07 ± 0.014 | 1.04 ± 0.027 | 1.02 ± 0.057 | 0.876 ± 0.04 | 0.764 ± 0.029 | 0.719 ± 0.028 | 0.717 ± 0.05 | 0.731 ± 0.023 | 0.666 ± 0.01 | 0.641 ± 0.017
10 | Cc1cc(Nc2ncnc3ccc(NC4=NC(C)(C)CO4)cc23)ccc1Oc1ccn2ncnc2c1 [Tucatinib] | 1.06 ± 0.019 | 1.11 ± 0.022 | 1.09 ± 0.036 | 1.07 ± 0.031 | 1.075 ± 0.0081 | 1.09 ± 0.03 | 1.08 ± 0.025 | 1.07 ± 0.027 | 1.05 ± 0.054 | 1.01 ± 0.022 | 0.953 ± 0.051
11 | CCN1CCN(Cc2ccc(Nc3ncc(F)c(-c4cc(F)c5nc(C)n(C(C)C)c5c4)n3)nc2)CC1 [Abemaciclib] | 1.04 ± 0.038 | 1.07 ± 0.061 | 1.07 ± 0.059 | 1.05 ± 0.039 | 1.04 ± 0.048 | 1 ± 0.077 | 0.892 ± 0.071 | 0.834 ± 0.028 | 0.736 ± 0.024 | 0.7 ± 0.014 | 0.539 ± 0.025
12 | Cc1nc(-c2cn3c(n2)-c2ccc(-c4cnn(C(C)(C)C(N)=O)c4)cc2OCC3)n(C(C)C)n1 [Taselisib] | 1.03 ± 0.013 | 1.03 ± 0.024 | 1.01 ± 0.031 | 1.02 ± 0.049 | 0.952 ± 0.029 | 0.911 ± 0.012 | 0.856 ± 0.018 | 0.793 ± 0.041 | 0.725 ± 0.037 | 0.684 ± 0.049 | 0.566 ± 0.017
13 | C[C@@H]1COCCN1c1cc(-c2ccnn2C)c2ccnc(-c3ccn[nH]3)c2n1 | 1.04 ± 0.014 | 1.06 ± 0.013 | 1.07 ± 0.042 | 1.04 ± 0.011 | 1.01 ± 0.036 | 0.783 ± 0.028 | 0.366 ± 0.051 | 0.194 ± 0.026 | 0.161 ± 0.0077 | 0.129 ± 0.0056 | 0.119 ± 0.0037
14 | CO[C@H]1C[C@@H]2CC[C@@H](C)[C@@](O)(O2)C(=O)C(=O)N2CCCC[C@H]2C(=O)O[C@H]([C@H](C)C[C@@H]2CC[C@@H](OP(C)(C)=O)[C@H](OC)C2)CC(=O)[C@H](C)/C=C(\C)[C@@H](O)[C@@H](OC)C(=O)[C@H](C)C[C@H](C)/C=C/C=C/C=C/1C [Ridaforolimus] | 1.03 ± 0.012 | 1.03 ± 0.027 | 0.987 ± 0.027 | 0.932 ± 0.015 | 0.919 ± 0.026 | 0.898 ± 0.022 | 0.878 ± 0.014 | 0.851 ± 0.016 | 0.826 ± 0.032 | 0.777 ± 0.018 | 0.741 ± 0.017

From the supplement of paper PMC10883282
